According to the NIST ThermoML archive (doi:10.1021/je700321s):
± gives the expanded uncertainty stated by the source.

Experiment: xn = mol fraction of the nth substance listed
Details: Liquid, Vibrating tube method

CC(C)O [propan-2-ol] + O=C=O
Details | mass density [kg/m3]
333.02 K, 8305 kPa, x2 = 0.6086 | 754.3 ± 0.8
333.02 K, 8394 kPa, x2 = 0.4248 | 773.2 ± 0.8
333.02 K, 8400 kPa, x2 = 0.6086 | 754.8 ± 0.8
333.02 K, 8504 kPa, x2 = 0.6086 | 755.5 ± 0.8
333.02 K, 8610 kPa, x2 = 0.6086 | 756 ± 0.8
333.02 K, 8701 kPa, x2 = 0.6086 | 756.6 ± 0.8
333.02 K, 8802 kPa, x2 = 0.4248 | 774.1 ± 0.8
333.02 K, 8802 kPa, x2 = 0.6086 | 757.3 ± 0.8
333.02 K, 8900 kPa, x2 = 0.6086 | 757.9 ± 0.8
333.02 K, 8916 kPa, x2 = 0.4248 | 774.5 ± 0.8
333.02 K, 9000 kPa, x2 = 0.4248 | 774.7 ± 0.8
333.02 K, 9005 kPa, x2 = 0.6086 | 758.5 ± 0.8
333.02 K, 9100 kPa, x2 = 0.4248 | 775 ± 0.8
333.02 K, 9103 kPa, x2 = 0.6086 | 759 ± 0.8
333.02 K, 9205 kPa, x2 = 0.4248 | 775.3 ± 0.8
333.02 K, 9304 kPa, x2 = 0.4248 | 775.6 ± 0.8
333.02 K, 9410 kPa, x2 = 0.4248 | 775.8 ± 0.8
333.02 K, 9506 kPa, x2 = 0.4248 | 776.1 ± 0.8
333.02 K, 9607 kPa, x2 = 0.4248 | 776.4 ± 0.8
333.02 K, 9809 kPa, x2 = 0.4248 | 776.8 ± 0.8
333.05 K, 4210 kPa, x2 = 0.2003 | 763.4 ± 0.8
333.05 K, 4492 kPa, x2 = 0.2003 | 763.8 ± 0.8
333.05 K, 4799 kPa, x2 = 0.2003 | 764.3 ± 0.8
333.05 K, 5001 kPa, x2 = 0.2003 | 764.6 ± 0.8
333.05 K, 5470 kPa, x2 = 0.2003 | 765.3 ± 0.8
333.05 K, 5996 kPa, x2 = 0.2003 | 766.1 ± 0.8
333.05 K, 6511 kPa, x2 = 0.2003 | 766.9 ± 0.8
333.05 K, 7008 kPa, x2 = 0.2003 | 767.7 ± 0.8
333.05 K, 7519 kPa, x2 = 0.2003 | 768.4 ± 0.8
333.05 K, 8008 kPa, x2 = 0.2003 | 769.2 ± 0.8
333.05 K, 8503 kPa, x2 = 0.2003 | 769.9 ± 0.8
333.05 K, 9019 kPa, x2 = 0.2003 | 770.6 ± 0.8
333.05 K, 9506 kPa, x2 = 0.2003 | 771.3 ± 0.8
333.05 K, 9994 kPa, x2 = 0.2003 | 772.1 ± 0.8
347.93 K, 7801 kPa, x2 = 0.4248 | 744.8 ± 0.8
347.93 K, 7908 kPa, x2 = 0.4248 | 745.1 ± 0.8
347.93 K, 7999 kPa, x2 = 0.4248 | 745.5 ± 0.8
347.93 K, 8130 kPa, x2 = 0.4248 | 745.9 ± 0.8
347.93 K, 8239 kPa, x2 = 0.4248 | 746.2 ± 0.8
347.93 K, 8408 kPa, x2 = 0.4248 | 746.8 ± 0.8
347.93 K, 8501 kPa, x2 = 0.4248 | 747.2 ± 0.8
347.93 K, 8600 kPa, x2 = 0.4248 | 747.4 ± 0.8
347.93 K, 8712 kPa, x2 = 0.4248 | 747.8 ± 0.8
347.93 K, 8801 kPa, x2 = 0.4248 | 748.2 ± 0.8
347.93 K, 8890 kPa, x2 = 0.4248 | 748.4 ± 0.8
347.93 K, 9033 kPa, x2 = 0.4248 | 748.8 ± 0.8
347.93 K, 9105 kPa, x2 = 0.4248 | 749.1 ± 0.8
347.93 K, 9244 kPa, x2 = 0.4248 | 749.4 ± 0.8
347.93 K, 9410 kPa, x2 = 0.4248 | 750 ± 0.8
347.93 K, 9501 kPa, x2 = 0.4248 | 750.2 ± 0.8
347.93 K, 9608 kPa, x2 = 0.4248 | 750.7 ± 0.9
347.94 K, 9809 kPa, x2 = 0.6086 | 716 ± 0.9
347.94 K, 9815 kPa, x2 = 0.6086 | 717 ± 0.8
347.94 K, 9822 kPa, x2 = 0.6086 | 718.1 ± 0.8
347.94 K, 9831 kPa, x2 = 0.6086 | 719.1 ± 0.8
347.94 K, 9840 kPa, x2 = 0.6086 | 719.7 ± 0.8
347.94 K, 9850 kPa, x2 = 0.6086 | 720 ± 0.8
347.94 K, 9861 kPa, x2 = 0.6086 | 720 ± 0.8
347.94 K, 9873 kPa, x2 = 0.6086 | 720.2 ± 0.8
347.94 K, 9885 kPa, x2 = 0.6086 | 720.2 ± 2.2
347.94 K, 9897 kPa, x2 = 0.6086 | 720.3 ± 2.4
347.94 K, 9910 kPa, x2 = 0.6086 | 720.4 ± 2.5
347.94 K, 9949 kPa, x2 = 0.6086 | 720.8 ± 2.9
347.94 K, 10004 kPa, x2 = 0.6086 | 721.1 ± 3.7
347.94 K, 10052 kPa, x2 = 0.6086 | 721.5 ± 3.5
347.94 K, 10104 kPa, x2 = 0.6086 | 721.9 ± 1.7
347.94 K, 10152 kPa, x2 = 0.6086 | 722.2 ± 8.3
347.95 K, 3317 kPa, x2 = 0.139 | 742.5 ± 0.8
347.95 K, 3516 kPa, x2 = 0.139 | 742.7 ± 0.8
347.95 K, 4002 kPa, x2 = 0.139 | 743.5 ± 0.8
347.95 K, 4464 kPa, x2 = 0.139 | 744.3 ± 0.8
347.95 K, 5008 kPa, x2 = 0.139 | 745.1 ± 0.8
347.95 K, 5502 kPa, x2 = 0.139 | 745.9 ± 0.8
347.95 K, 6011 kPa, x2 = 0.139 | 746.7 ± 0.8
347.95 K, 6501 kPa, x2 = 0.139 | 747.5 ± 0.8
347.95 K, 7037 kPa, x2 = 0.139 | 748.3 ± 0.8
347.95 K, 7523 kPa, x2 = 0.139 | 749.1 ± 0.8
347.95 K, 8023 kPa, x2 = 0.139 | 749.8 ± 0.8
347.95 K, 8497 kPa, x2 = 0.139 | 750.5 ± 0.8
347.95 K, 8993 kPa, x2 = 0.139 | 751.3 ± 0.8
347.95 K, 9568 kPa, x2 = 0.139 | 752.1 ± 0.8
347.95 K, 10032 kPa, x2 = 0.139 | 752.8 ± 0.8
347.95 K, 11400 kPa, x2 = 0.7943 | 647.2 ± 1
347.95 K, 11604 kPa, x2 = 0.7943 | 653.3 ± 1
347.95 K, 11812 kPa, x2 = 0.7943 | 658.7 ± 1
347.95 K, 12007 kPa, x2 = 0.7943 | 663 ± 1
347.95 K, 12201 kPa, x2 = 0.7943 | 666.8 ± 1
347.95 K, 12502 kPa, x2 = 0.7943 | 672.6 ± 1
347.95 K, 12802 kPa, x2 = 0.7943 | 677.6 ± 0.9
347.95 K, 13202 kPa, x2 = 0.7943 | 684 ± 0.9
347.95 K, 13504 kPa, x2 = 0.7943 | 688.5 ± 0.9
347.95 K, 13802 kPa, x2 = 0.7943 | 692.8 ± 0.9
347.95 K, 14109 kPa, x2 = 0.7943 | 696.9 ± 0.9
347.95 K, 14406 kPa, x2 = 0.7943 | 700.5 ± 0.9
347.95 K, 14703 kPa, x2 = 0.7943 | 703.9 ± 0.9
347.95 K, 15000 kPa, x2 = 0.7943 | 707.4 ± 0.9
347.95 K, 15207 kPa, x2 = 0.7943 | 709.6 ± 1.1
347.95 K, 15407 kPa, x2 = 0.7943 | 711.9 ± 0.9
347.95 K, 15610 kPa, x2 = 0.7943 | 714 ± 1
347.95 K, 15813 kPa, x2 = 0.7943 | 716.1 ± 1.1
347.95 K, 16004 kPa, x2 = 0.7943 | 717.9 ± 0.8
347.95 K, 16303 kPa, x2 = 0.7943 | 720.7 ± 1
347.95 K, 16501 kPa, x2 = 0.7943 | 722.4 ± 0.8
347.95 K, 16808 kPa, x2 = 0.7943 | 725 ± 1.1
347.96 K, 10989 kPa, x2 = 0.9492 | 348.5 ± 1
347.96 K, 11505 kPa, x2 = 0.9492 | 382.4 ± 1
347.96 K, 12004 kPa, x2 = 0.9492 | 415.7 ± 1
347.96 K, 12507 kPa, x2 = 0.9492 | 448.4 ± 1
347.96 K, 13000 kPa, x2 = 0.9492 | 477.1 ± 1
347.96 K, 13503 kPa, x2 = 0.9492 | 503 ± 0.9
347.96 K, 14006 kPa, x2 = 0.9492 | 527.8 ± 0.9
347.96 K, 14511 kPa, x2 = 0.9492 | 550.1 ± 0.9
347.96 K, 15011 kPa, x2 = 0.9492 | 569.6 ± 0.9
347.96 K, 15495 kPa, x2 = 0.9492 | 586.6 ± 0.9
347.96 K, 15997 kPa, x2 = 0.9492 | 602.4 ± 0.9
347.96 K, 16514 kPa, x2 = 0.9492 | 617 ± 0.9
347.96 K, 17014 kPa, x2 = 0.9492 | 629.5 ± 0.8
347.96 K, 17513 kPa, x2 = 0.9492 | 640.4 ± 0.8
347.96 K, 17988 kPa, x2 = 0.9492 | 648.6 ± 0.8
347.97 K, 5098 kPa, x2 = 0.2003 | 745.6 ± 0.8
347.97 K, 5302 kPa, x2 = 0.2003 | 746.1 ± 0.8
347.97 K, 5533 kPa, x2 = 0.2003 | 746.5 ± 0.8
347.97 K, 6025 kPa, x2 = 0.2003 | 747.4 ± 0.8
347.97 K, 6609 kPa, x2 = 0.2003 | 748.4 ± 0.8
347.97 K, 7005 kPa, x2 = 0.2003 | 749.2 ± 0.8
347.97 K, 7508 kPa, x2 = 0.2003 | 750.1 ± 0.8
347.97 K, 8010 kPa, x2 = 0.2003 | 751 ± 0.8
347.97 K, 8501 kPa, x2 = 0.2003 | 751.7 ± 0.8
347.97 K, 8915 kPa, x2 = 0.2003 | 752.4 ± 0.8
347.97 K, 9581 kPa, x2 = 0.2003 | 753.5 ± 0.8
347.97 K, 9706 kPa, x2 = 0.2003 | 753.7 ± 0.8
347.97 K, 10014 kPa, x2 = 0.2003 | 754.2 ± 0.8
